Source: ChEMBL document CHEMBL1154562, “Malevamides A-C, new depsipeptides from the marine cyanobacterium Symploca laete-viridis” (J Nat Prod, 2000)
Calls of active or inactive are those of the source.

Legend:
Type in all cases: functional, cell-based
A549 = test: Cytotoxicity against human A549 cells at 2 ug/mL
HT-29 = test: Cytotoxicity against human HT29 cells at 2 ug/mL
P388 = test: Cytotoxicity against mouse P388 cells at 2 ug/mL

Measured: Activity

CCCC1NC(=O)[C@H](Cc2ccccc2)N(C)C(=O)[C@@H]2CCCN2C(=O)C(C(C)C)N(C)C(=O)[C@@H]2CCCN2C(=O)[C@H]([C@@H](C)CC)NC(=O)C(C(C)C)N(C)C(=O)[C@@H]2CCCN2C(=O)C(C(C)C)N(C)C(=O)C(C(C)C)N(C)C(=O)[C@H](C(C)C)NC(=O)[C@H](C)N(C)C(=O)[C@@H](C(C)C)OC(=O)C1C (some centres undefined)
inactive: all assays above

C#CCCCC1NC(=O)[C@H]([C@@H](C)CC)N(C)C(=O)[C@@H]2CCCN2C(=O)[C@@H]2CCCN2C(=O)[C@H](CC(C)C)NC(=O)[C@H](C(C)C)N(C)C(=O)[C@H](C)NC(=O)[C@@H](C)N(C)C(=O)[C@H](Cc2ccccc2)N(C)C(=O)[C@H](COC)N(C)C(=O)[C@H](C(C)C)N(C)C(=O)[C@@H]2CCCN2C(=O)[C@H](C)NC(=O)[C@H](C(C)C)OC(=O)C1C (some centres undefined)
inactive: all assays above

CCCCC(C)C(=O)N1CCC[C@H]1C(=O)N(C)C(Cc1ccccc1)C(=O)NCC(=O)N(C)[C@@H](C(=O)N[C@H](C(=O)NCC(=O)N(C)C(Cc1ccccc1)C(=O)N1CCC[C@@H]1C(=O)OC)[C@@H](C)CC)C(C)C (some centres undefined)
inactive: all assays above
